What was measured:
[1] = target: T1, OATP1B3 (Homo sapiens, UniProt Q9NPD5); assay: Uptake (intracellular accumulation) kinetics in ABCC2/OATP1B3 double-transfected MDCKII cells; assay type: in vitro ADME; set-up: expressed in transfected cells; host or cells: MDCKII (canine kidney), co-expressing ABCC2
T1 sequence (Q9NPD5 1-702): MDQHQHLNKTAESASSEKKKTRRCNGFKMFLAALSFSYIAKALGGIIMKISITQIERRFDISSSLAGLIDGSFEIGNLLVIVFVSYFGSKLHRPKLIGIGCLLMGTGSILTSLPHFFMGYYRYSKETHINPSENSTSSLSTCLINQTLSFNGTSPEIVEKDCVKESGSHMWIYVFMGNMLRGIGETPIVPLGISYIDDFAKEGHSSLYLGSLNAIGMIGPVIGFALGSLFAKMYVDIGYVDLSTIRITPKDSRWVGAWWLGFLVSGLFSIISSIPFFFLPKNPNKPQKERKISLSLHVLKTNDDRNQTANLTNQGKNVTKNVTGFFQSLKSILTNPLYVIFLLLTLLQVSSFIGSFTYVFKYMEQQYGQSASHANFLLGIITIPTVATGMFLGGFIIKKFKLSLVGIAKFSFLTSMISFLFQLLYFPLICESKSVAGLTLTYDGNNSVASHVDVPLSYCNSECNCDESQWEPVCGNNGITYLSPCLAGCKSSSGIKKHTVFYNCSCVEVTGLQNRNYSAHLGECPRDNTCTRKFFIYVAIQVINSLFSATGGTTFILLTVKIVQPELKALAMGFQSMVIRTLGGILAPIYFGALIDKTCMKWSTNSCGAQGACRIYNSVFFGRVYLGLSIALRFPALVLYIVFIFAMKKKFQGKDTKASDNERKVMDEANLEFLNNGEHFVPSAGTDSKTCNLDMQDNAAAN
Method: (§1) (a) MDCKII cells were grown on ThinCerts (24-mm diameter, pore size 0.4 μm, pore density 1×10^8 per cm^2) and induced with butyrate as mentioned above. The cells were washed in prewarmed (37° C.) transport buffer (142 mM NaCl, 5 mM KCl, 1 mM KH2PO4, 1.2 mM MgSO4, 1.5 mM CaCl2, 5 mM glucose, and 12.5 mM HEPES, pH 7.3). The ^3H-labeled substrate was dissolved in transport buffer and added either to the apical or to the basolateral compartment at the concentration indicated. After incubation at 37° C., the radioactivity in the opposite compartment was measured by sampling aliquots from the apical or basolateral compartment. Cells were washed 2 times with ice-cold transport buffer containing 0.5% bovine serum albumin and 3 times in ice-cold transport buffer. Intracellular accumulation of radioactivity was calculated by lyzing the cells with 0.2% sodium dodecyl sulfate (SDS) and measuring the radioactivity in the lysate.

[2] = target: T2, OATP2B1 (Homo sapiens, UniProt O94956); assay: Uptake (intracellular accumulation) kinetics in ABCC2/OATP2B1 double-transfected MDCKII cells; assay type: in vitro ADME; set-up: expressed in transfected cells; host or cells: MDCKII (canine kidney) ABCC2 single-transfectant, further transfected with pcDNA3.1/Hygro(-)-OATP2B1; settings: cell line ABCC2-OATP2B1; intracellular accumulation of 3H-labeled substrate
T2 sequence (O94956 1-709): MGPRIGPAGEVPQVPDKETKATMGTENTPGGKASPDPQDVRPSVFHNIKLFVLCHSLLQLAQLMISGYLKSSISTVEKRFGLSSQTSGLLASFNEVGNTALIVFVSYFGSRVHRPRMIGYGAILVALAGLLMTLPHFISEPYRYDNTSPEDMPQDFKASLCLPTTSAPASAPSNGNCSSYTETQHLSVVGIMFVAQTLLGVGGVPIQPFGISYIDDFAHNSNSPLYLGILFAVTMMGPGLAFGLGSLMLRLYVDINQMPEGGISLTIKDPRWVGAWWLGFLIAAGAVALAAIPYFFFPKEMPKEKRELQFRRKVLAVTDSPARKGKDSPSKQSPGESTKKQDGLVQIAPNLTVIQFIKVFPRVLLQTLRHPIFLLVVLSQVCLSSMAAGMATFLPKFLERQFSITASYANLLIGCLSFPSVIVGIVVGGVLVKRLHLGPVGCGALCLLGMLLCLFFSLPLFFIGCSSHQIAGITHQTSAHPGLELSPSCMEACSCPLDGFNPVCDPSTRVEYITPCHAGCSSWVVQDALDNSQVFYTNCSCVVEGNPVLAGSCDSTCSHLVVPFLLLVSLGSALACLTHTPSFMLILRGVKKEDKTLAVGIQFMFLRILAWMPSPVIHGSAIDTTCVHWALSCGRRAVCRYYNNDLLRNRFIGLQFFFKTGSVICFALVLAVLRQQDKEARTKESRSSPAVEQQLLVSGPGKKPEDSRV
Method: as §1, with “The cells were washed in prewarmed (37° C.) transport buffer (142 mM NaCl, 5 mM KCl, 1 mM KH2PO4, 1.2 mM MgSO4, 1.5 mM CaCl2, 5 mM glucose, and 12.5 mM HEPES, pH 7.3).” left out

Structure (SMILES): O=C1OC(c2ccc(O)c(S(=O)(=O)O)c2)(c2ccc(O)c(S(=O)(=O)O)c2)c2c(Br)c(Br)c(Br)c(Br)c21 [Bromosulfophthalein]
- Vmax ([1]; cell line ABCC2-OATP1B3, intracellular accumulation of 3H-labeled substrate): 82.7 ± 4.0 pmol · mg protein^−1 · min^−1
- Km at 5 min ([1]; human, pH 7.3): 2.2 µM
- Vmax [2]: 52.8 ± 8.6 pmol · mg protein^−1 · min^−1

Reference: patent US20080038728A1, “Quadruple Transformed Cell Line Useful for the Identification of Transport Inhibitors” (priority 2004, published 2008)
